Values of other authors, collected in US9872927B2, “Dye solution” (FLUORON GMBH, priority 2008, dated 2018).

Tests used:
[1] = dye of U.S. Pat. No. 7,014,991

SMILES | concentration in water tolerated by eukaryotes (eukaryotes) | irritation in the area of application (eukaryotes) | cytotoxicity [1]
[2H]O[2H] [Heavy water, D2O] | ≤ 20% | does not lead to any irritation | –
O=C1/C(=C2\Nc3ccc(S(=O)(=O)O)cc3C2=O)Nc2ccc(S(=O)(=O)O)cc21 [indigotindisulfonate] | – | – | cytotoxic
